From the supplement of paper PMC13380429

Columns and labels:
Details in all cases: 72 h
HepG2 [1] = assay: cell viability relative to DMSO; higher = less toxic
U2OS [2] = assay: as above
Calu-3 [3] = assay: as above
Vero E6 [4] = assay: as above
Caco-2 [5] = assay: as above
HepG2 [6] = assay: drug sensitivity score (DSS) for viability; higher = more toxic; extreme values may be limits of the assay
U2OS [7] = assay: as above
Calu-3 [8] = assay: as above
Vero E6 [9] = assay: as above
Caco-2 [10] = assay: as above
HepG2 [11] = assay: relative viability EC50 (midpoint between 100% and the lowest measured viability); higher = less toxic
U2OS [12] = assay: as above
Calu-3 [13] = assay: as above
Vero E6 [14] = assay: as above
Caco-2 [15] = assay: as above

| SMILES | cell viability (HepG2 [1]; 1 nM) [%] | cell viability (HepG2 [1]; 10 nM) [%] | cell viability (HepG2 [1]; 100 nM) [%] | cell viability (HepG2 [1]; 1000 nM) [%] | cell viability (HepG2 [1]; 10000 nM) [%] | cell viability (U2OS [2]; 1 nM) [%] | cell viability (U2OS [2]; 10 nM) [%] | cell viability (U2OS [2]; 100 nM) [%] | cell viability (U2OS [2]; 1000 nM) [%] | cell viability (U2OS [2]; 10000 nM) [%] | cell viability (Calu-3 [3]; 1 nM) [%] | cell viability (Calu-3 [3]; 10 nM) [%] | cell viability (Calu-3 [3]; 100 nM) [%] | cell viability (Calu-3 [3]; 1000 nM) [%] | cell viability (Calu-3 [3]; 10000 nM) [%] | cell viability (Vero E6 [4]; 1 nM) [%] | cell viability (Vero E6 [4]; 10 nM) [%] | cell viability (Vero E6 [4]; 100 nM) [%] | cell viability (Vero E6 [4]; 1000 nM) [%] | cell viability (Vero E6 [4]; 10000 nM) [%] | cell viability (Caco-2 [5]; 1 nM) [%] | cell viability (Caco-2 [5]; 10 nM) [%] | cell viability (Caco-2 [5]; 100 nM) [%] | cell viability (Caco-2 [5]; 1000 nM) [%] | cell viability (Caco-2 [5]; 10000 nM) [%] | drug sensitivity score (HepG2 [6]) | drug sensitivity score (U2OS [7]) | drug sensitivity score (Calu-3 [8]) | drug sensitivity score (Vero E6 [9]) | drug sensitivity score (Caco-2 [10]) | relative viability EC50 (HepG2 [11]) [µM] | relative viability EC50 (U2OS [12]) [µM] | relative viability EC50 (Calu-3 [13]) [µM] | relative viability EC50 (Vero E6 [14]) [µM] | relative viability EC50 (Caco-2 [15]) [µM] |
| --- | --- | --- | --- | --- | --- | --- | --- | --- | --- | --- | --- | --- | --- | --- | --- | --- | --- | --- | --- | --- | --- | --- | --- | --- | --- | --- | --- | --- | --- | --- | --- | --- | --- | --- | --- |
| CC(C)(N)C(=O)N[C@H](COCc1ccccc1)C(=O)N1CCC2(CC1)CN(S(C)(=O)=O)c1ccccc12 [ibutamoren] | 102 | 89.5 | 95.6 | 98 | 95.6 | 100 | 100 | 96.9 | 102 | 100 | 111 | 108 | 98 | 105 | 91 | 104 | 103 | 98.1 | 95.6 | 108 | 93.6 | 98.4 | 99 | 100 | 95.8 | 0 | 0 | 0 | 0 | 0 | > 10 | > 10 | > 10 | > 10 | > 10 |
| O=c1c(-c2ccccc2)c1-c1ccccc1 [diphencyprone] | 95.2 | 91.4 | 95.7 | 89.8 | 86 | 98.9 | 99.5 | 103 | 98 | 84.2 | 105 | 97.6 | 104 | 111 | 122 | 101 | 104 | 99.6 | 99.1 | 93.5 | 110 | 103 | 114 | 106 | 97.2 | 0.2 | 0.5 | 0 | 0 | 0 | > 10 | > 10 | > 10 | > 10 | > 10 |
| CC=C1C(=O)C[C@H]2[C@@H]3CCC4=CC(=O)CC[C@]4(C)[C@H]3CC[C@]12C [GR-235] | 85.2 | 93.1 | 95.4 | 101 | 91 | 100 | 98.4 | 102 | 98.2 | 99.1 | 110 | 89.9 | 100 | 99.8 | 114 | 110 | 108 | 97.8 | 104 | 111 | 95.6 | 96.2 | 99.5 | 90.3 | 83.4 | 0 | 0 | 0 | 0 | 1 | > 10 | > 10 | > 10 | > 10 | > 10 |
| CNC(=O)c1ccc(N2C(=S)N(c3cnc(C#N)c(C(F)(F)F)c3)C(=O)C23CCC3)cc1F [apalutamide] | 99.5 | 107 | 112 | 109 | 104 | 98 | 98.6 | 96.7 | 97.7 | 96.9 | 106 | 103 | 103 | 102 | 97.1 | 104 | 107 | 99.3 | 105 | 98.8 | 104 | 107 | 94.1 | 90.6 | 93.5 | 0 | 0 | 0 | 0 | 0 | > 10 | > 10 | > 10 | > 10 | > 10 |
| O=C(Nc1ccccc1)N[C@H]1C[C@H](C(=O)O)Nc2cc(Cl)cc(Cl)c21 | 96.4 | 103 | 96.3 | 84.6 | 104 | 98 | 104 | 103 | 105 | 100 | 105 | 89.8 | 108 | 95.8 | 97.1 | 106 | 100 | 100 | 96.7 | 99.8 | 98.1 | 104 | 104 | 104 | 92.5 | 0 | 0 | 0 | 0 | 0 | > 10 | > 10 | > 10 | > 10 | > 10 |
| CC1CC(OC(=O)C(O)c2ccccc2)CC(C)(C)C1 (stereo not given) [cyclandelate] | 103 | 91.9 | 100 | 96.3 | 98.3 | 97.2 | 103 | 97.5 | 102 | 97.5 | 95.9 | 90.2 | 102 | 95.5 | 99 | 97.8 | 99.1 | 100 | 96.7 | 94.9 | 91.5 | 105 | 94.3 | 105 | 108 | 0 | 0 | 0 | 0 | 0 | > 10 | > 10 | > 10 | > 10 | > 10 |
| CC(=O)N[C@H]1[C@@H](O)[C@H](O)[C@@H](CO)O[C@@H]1O [N-acetylmannosamine] | 108 | 96.7 | 110 | 105 | 100 | 95.6 | 101 | 105 | 103 | 105 | 106 | 100 | 94.7 | 102 | 111 | 97 | 95.9 | 92.1 | 92.8 | 108 | 102 | 99.6 | 100 | 107 | 104 | 0 | 0 | 0 | 0 | 0 | > 10 | > 10 | > 10 | > 10 | > 10 |
| CC(C)[C@H]1c2ccc(F)cc2CC[C@@]1(CCN(C)CCCc1nc2ccccc2[nH]1)OC(=O)C1CC1 [NNC-55-0396] | 109 | 104 | 98.7 | 96.8 | 0 | 98.9 | 99.1 | 94.4 | 97.2 | 2.8 | 106 | 105 | 100 | 99.7 | 2.2 | 95.2 | 96.1 | 93.5 | 89.4 | -0.1 | 85.5 | 102 | 93.6 | 97.2 | 4.5 | 6 | 5.8 | 5.5 | 7.3 | 5.7 | 2.93 | 2.96 | 3.14 | 2.29 | 2.95 |
| COc1ccc2cccc(N3CCN(CCNC(=O)c4ccc(F)cc4)CC3)c2c1 | 99.2 | 98.9 | 97.4 | 95.4 | 89.5 | 95.7 | 103 | 92.7 | 96.4 | 90.4 | 96.6 | 105 | 104 | 106 | 83 | 103 | 104 | 97.5 | 94 | 89.3 | 98.3 | 95.3 | 98.3 | 90.6 | 86.2 | 0 | 0 | 0.2 | 0 | 0.3 | > 10 | > 10 | > 10 | > 10 | > 10 |
| CCC(=O)O[C@H]1[C@H](O[C@@H]2[C@@H](C)[C@H](O[C@H]3C[C@@](C)(OC)[C@@H](O)[C@H](C)O3)[C@@H](C)C(=O)O[C@H](CC)[C@@](C)(O)[C@H](O)[C@@H](C)C(=O)[C@H](C)C[C@@]2(C)O)O[C@H](C)C[C@@H]1N(C)C [erythromycin-estolate] | 99.7 | 104 | 104 | 93.2 | 100 | 98.7 | 98.4 | 101 | 104 | 104 | 91.3 | 96 | 91.4 | 88.6 | 99 | 96.9 | 95.9 | 101 | 96.4 | 102 | 96.2 | 102 | 97.5 | 99.4 | 97 | 0 | 0 | 0 | 0 | 0 | > 10 | > 10 | > 10 | > 10 | > 10 |
| COc1ccc(CN(CCN(C)C)c2ncccn2)cc1 [thonzylamine] | 93.2 | 103 | 97.6 | 102 | 98.9 | 97.2 | 101 | 96 | 98.3 | 105 | 96.2 | 103 | 96.9 | 92.5 | 101 | 102 | 102 | 98.1 | 104 | 95.9 | 99.7 | 104 | 93.8 | 101 | 105 | 0 | 0 | 0 | 0 | 0 | > 10 | > 10 | > 10 | > 10 | > 10 |
